# Data as given in ChEMBL document CHEMBL1145498, “A systematic interaction map of validated kinase inhibitors with Ser/Thr kinases” (Proc Natl Acad Sci U S A, 2007).
# Experiments:
# [1] = target: Death-associated protein kinase 3 (Homo sapiens) (UniProt O43293)
# [2] = target: T1, Mitogen-activated protein kinase kinase kinase 5 (Homo sapiens) (UniProt Q99683)
# T1 sequence (whole entry): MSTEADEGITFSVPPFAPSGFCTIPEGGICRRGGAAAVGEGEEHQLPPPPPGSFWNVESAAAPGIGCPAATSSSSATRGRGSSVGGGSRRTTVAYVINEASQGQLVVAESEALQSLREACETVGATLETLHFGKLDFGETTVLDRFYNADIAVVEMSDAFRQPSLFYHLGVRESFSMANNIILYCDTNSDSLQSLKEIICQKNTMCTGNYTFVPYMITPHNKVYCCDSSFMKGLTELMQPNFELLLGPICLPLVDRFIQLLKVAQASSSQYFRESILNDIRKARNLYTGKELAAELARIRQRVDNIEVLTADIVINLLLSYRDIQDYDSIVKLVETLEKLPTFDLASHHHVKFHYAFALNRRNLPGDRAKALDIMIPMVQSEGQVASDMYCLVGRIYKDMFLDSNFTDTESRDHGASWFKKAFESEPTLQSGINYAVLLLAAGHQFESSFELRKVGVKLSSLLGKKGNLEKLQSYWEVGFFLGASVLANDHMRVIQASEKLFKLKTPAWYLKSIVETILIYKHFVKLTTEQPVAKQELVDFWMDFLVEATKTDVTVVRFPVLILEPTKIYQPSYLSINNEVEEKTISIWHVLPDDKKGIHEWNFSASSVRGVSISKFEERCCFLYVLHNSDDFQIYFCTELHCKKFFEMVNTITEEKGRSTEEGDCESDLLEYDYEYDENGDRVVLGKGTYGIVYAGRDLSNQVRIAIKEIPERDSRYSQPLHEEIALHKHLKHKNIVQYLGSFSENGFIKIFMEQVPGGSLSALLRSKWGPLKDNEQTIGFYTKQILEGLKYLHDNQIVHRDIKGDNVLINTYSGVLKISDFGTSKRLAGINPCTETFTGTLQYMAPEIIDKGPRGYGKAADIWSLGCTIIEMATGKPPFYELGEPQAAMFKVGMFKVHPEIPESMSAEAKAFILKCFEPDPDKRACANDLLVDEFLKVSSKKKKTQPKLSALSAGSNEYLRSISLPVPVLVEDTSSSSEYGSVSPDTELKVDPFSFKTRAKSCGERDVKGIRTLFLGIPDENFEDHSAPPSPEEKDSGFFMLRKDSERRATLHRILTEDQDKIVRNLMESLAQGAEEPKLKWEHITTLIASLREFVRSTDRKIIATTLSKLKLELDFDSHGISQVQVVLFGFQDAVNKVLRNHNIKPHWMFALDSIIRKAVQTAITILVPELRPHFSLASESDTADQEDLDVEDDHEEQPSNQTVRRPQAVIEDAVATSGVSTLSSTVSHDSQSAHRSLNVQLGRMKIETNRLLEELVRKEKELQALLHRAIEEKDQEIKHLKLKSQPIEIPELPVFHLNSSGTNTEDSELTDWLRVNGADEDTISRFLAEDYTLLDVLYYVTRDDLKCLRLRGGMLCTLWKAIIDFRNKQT
# [3] = target: Dual specificity protein kinase CLK2 (Homo sapiens) (UniProt P49760)
# [4] = target: Casein kinase I isoform gamma-2 (Homo sapiens) (UniProt P78368)
# [5] = target: Cyclin-dependent kinase 6 (Homo sapiens) (UniProt Q00534)
# [6] = target: Cyclin-dependent kinase 2 (Homo sapiens, UniProt P24941)
# [7] = target: Mitogen-activated protein kinase 6 (Homo sapiens) (UniProt Q16659)
# [8] = target: Dual specificity protein kinase CLK1 (Homo sapiens) (UniProt P49759)
# [9] = target: Casein kinase I isoform gamma-1 (Homo sapiens) (UniProt Q9HCP0)
# [10] = target: Calcium/calmodulin-dependent protein kinase type II subunit alpha (Homo sapiens) (UniProt Q9UQM7)
# [11] = target: Serine/threonine-protein kinase PAK 6 (Homo sapiens) (UniProt Q9NQU5)
# [12] = target: Glycogen synthase kinase-3 beta (Homo sapiens, UniProt P49841)
# [13] = target: Dual specificity protein kinase CLK3 (Homo sapiens) (UniProt P49761)
# [14] = target: Calcium/calmodulin-dependent protein kinase type 1D (Homo sapiens) (UniProt Q8IU85)
# [15] = target: Ribosomal protein S6 kinase alpha-3 (Homo sapiens) (UniProt P51812)
# [16] = target: Casein kinase I isoform gamma-3 (Homo sapiens) (UniProt Q9Y6M4)
# [17] = target: TRAF2 and NCK-interacting protein kinase (Homo sapiens) (UniProt Q9UKE5)
# [18] = target: T2, Lymphokine-activated killer T-cell-originated protein kinase (Homo sapiens) (UniProt Q96KB5)
# T2 sequence (whole entry): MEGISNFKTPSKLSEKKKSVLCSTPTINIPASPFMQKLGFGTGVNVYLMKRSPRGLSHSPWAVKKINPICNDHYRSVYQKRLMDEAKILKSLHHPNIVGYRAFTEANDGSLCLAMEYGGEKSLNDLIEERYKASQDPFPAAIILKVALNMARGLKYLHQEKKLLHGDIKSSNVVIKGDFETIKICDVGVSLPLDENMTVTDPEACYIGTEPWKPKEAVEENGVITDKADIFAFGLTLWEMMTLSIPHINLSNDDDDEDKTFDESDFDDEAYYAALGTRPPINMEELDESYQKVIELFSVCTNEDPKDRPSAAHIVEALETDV
# [19] = target: 5'-AMP-activated protein kinase catalytic subunit alpha-2 (Homo sapiens) (UniProt P54646)
# [20] = target: Serine/threonine-protein kinase OSR1 (Homo sapiens) (UniProt O95747)
# Sequence of Mitogen-activated protein kinase 6 (Homo sapiens) (Q16659 whole entry): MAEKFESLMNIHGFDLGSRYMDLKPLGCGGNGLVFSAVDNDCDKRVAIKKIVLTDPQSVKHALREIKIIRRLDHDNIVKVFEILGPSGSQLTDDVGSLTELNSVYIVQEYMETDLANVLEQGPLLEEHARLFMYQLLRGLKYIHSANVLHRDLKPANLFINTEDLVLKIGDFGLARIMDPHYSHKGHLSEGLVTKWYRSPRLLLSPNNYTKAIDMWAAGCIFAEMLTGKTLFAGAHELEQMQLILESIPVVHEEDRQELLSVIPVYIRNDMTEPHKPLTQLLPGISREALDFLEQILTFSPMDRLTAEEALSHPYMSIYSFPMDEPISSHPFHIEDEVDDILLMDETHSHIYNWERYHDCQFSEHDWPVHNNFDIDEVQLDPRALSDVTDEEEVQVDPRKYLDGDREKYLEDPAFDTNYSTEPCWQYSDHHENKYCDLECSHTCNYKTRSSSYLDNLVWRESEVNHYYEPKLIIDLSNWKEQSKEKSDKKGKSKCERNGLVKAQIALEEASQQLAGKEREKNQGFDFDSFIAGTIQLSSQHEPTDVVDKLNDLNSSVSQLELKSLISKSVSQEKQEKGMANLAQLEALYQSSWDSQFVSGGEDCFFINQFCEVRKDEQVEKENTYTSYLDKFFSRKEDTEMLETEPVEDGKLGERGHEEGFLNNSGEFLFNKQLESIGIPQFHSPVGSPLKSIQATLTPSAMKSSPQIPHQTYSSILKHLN
# Sequence of 5'-AMP-activated protein kinase catalytic subunit alpha-2 (Homo sapiens) (P54646 whole entry, looked up): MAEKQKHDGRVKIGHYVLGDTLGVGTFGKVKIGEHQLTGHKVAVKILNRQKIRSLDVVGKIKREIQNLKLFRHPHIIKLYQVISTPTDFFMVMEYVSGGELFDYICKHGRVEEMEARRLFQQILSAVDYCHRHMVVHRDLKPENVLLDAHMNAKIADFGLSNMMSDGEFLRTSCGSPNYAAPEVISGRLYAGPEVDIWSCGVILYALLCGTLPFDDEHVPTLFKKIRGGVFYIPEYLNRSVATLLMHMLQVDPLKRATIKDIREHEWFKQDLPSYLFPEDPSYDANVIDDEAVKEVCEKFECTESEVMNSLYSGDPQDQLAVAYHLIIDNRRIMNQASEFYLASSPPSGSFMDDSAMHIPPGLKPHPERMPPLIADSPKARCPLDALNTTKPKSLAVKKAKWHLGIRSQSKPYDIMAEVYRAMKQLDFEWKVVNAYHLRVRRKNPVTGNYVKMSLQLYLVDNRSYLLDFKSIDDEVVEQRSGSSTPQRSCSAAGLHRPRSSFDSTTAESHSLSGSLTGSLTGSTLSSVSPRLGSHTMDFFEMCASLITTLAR
# Sequence of Dual specificity protein kinase CLK1 (Homo sapiens) (P49759 whole entry, looked up, canonical isoform): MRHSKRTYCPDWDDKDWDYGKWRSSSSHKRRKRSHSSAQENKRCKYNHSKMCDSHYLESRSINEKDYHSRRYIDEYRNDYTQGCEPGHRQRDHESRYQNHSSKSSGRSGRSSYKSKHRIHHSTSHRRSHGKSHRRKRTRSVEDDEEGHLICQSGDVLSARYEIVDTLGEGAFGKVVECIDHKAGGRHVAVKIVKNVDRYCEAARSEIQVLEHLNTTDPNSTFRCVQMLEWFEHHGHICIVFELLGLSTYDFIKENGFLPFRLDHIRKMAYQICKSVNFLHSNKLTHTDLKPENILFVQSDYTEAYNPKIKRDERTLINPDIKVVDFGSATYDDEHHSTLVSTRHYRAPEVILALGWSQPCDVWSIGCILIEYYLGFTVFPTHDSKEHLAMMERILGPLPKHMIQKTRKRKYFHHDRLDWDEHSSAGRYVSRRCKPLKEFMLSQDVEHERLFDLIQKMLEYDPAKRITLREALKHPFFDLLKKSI
# Sequence of Dual specificity protein kinase CLK2 (Homo sapiens) (P49760 whole entry, looked up, canonical isoform): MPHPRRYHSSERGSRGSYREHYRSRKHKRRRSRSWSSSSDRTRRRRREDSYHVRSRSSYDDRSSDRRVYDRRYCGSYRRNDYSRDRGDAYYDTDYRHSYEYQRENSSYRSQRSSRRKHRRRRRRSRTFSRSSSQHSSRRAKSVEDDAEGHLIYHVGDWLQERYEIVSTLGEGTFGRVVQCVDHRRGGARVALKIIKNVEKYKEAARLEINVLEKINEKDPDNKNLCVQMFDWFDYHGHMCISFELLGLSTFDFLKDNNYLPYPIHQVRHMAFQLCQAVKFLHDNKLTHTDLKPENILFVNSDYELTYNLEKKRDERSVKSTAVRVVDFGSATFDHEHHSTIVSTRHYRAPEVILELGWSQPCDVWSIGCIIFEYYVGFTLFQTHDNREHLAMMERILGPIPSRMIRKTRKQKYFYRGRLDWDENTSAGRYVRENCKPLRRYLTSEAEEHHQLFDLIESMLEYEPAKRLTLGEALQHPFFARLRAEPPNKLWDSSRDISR
# Sequence of TRAF2 and NCK-interacting protein kinase (Homo sapiens) (Q9UKE5 whole entry, looked up): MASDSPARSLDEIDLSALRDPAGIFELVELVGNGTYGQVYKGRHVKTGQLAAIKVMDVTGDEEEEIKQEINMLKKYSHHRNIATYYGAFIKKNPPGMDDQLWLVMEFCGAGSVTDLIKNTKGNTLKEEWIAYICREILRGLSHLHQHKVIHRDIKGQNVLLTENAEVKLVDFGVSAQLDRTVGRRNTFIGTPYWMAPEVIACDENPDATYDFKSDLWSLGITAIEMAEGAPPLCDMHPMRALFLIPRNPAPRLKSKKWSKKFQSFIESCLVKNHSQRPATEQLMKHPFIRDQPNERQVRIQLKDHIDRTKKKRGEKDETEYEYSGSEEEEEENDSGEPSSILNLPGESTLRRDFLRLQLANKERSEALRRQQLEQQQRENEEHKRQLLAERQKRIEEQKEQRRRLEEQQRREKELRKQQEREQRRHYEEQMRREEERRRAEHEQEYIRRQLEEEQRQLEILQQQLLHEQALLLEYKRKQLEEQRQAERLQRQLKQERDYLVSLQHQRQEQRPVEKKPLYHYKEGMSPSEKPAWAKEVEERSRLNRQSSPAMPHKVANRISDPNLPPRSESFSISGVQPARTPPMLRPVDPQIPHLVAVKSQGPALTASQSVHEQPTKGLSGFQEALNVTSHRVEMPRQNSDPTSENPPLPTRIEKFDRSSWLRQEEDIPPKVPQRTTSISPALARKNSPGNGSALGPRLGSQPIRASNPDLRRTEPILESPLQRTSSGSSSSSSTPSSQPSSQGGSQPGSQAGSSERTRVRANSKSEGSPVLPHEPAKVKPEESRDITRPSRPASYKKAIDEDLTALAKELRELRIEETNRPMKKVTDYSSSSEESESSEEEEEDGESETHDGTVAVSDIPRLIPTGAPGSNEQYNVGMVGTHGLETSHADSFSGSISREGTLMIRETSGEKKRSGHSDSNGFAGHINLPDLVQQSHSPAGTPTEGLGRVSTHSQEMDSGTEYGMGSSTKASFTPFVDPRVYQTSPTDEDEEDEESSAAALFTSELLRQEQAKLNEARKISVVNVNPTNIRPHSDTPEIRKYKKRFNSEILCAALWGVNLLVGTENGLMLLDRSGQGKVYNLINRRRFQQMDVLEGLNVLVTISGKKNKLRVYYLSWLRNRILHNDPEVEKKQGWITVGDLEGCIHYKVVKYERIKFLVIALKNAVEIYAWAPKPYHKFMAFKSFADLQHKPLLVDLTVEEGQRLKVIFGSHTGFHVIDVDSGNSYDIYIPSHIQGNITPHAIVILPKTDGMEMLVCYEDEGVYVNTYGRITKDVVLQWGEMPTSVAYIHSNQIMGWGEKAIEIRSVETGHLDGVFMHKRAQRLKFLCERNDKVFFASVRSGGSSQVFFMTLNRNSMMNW
# Sequence of Casein kinase I isoform gamma-3 (Homo sapiens) (Q9Y6M4 whole entry, looked up, canonical isoform): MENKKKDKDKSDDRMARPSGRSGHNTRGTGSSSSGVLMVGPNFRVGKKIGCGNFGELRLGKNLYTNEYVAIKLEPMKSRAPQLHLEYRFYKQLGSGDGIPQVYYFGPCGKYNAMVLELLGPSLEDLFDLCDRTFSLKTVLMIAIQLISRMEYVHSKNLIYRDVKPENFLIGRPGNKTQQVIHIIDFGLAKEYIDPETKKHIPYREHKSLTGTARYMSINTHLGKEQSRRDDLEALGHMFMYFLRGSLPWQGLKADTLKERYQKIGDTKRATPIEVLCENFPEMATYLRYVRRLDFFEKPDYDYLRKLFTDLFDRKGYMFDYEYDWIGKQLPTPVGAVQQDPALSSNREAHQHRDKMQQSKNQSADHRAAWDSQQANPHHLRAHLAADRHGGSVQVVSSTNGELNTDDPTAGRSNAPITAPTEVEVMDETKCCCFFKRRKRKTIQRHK
# Sequence of Ribosomal protein S6 kinase alpha-3 (Homo sapiens) (P51812 whole entry, canonical isoform): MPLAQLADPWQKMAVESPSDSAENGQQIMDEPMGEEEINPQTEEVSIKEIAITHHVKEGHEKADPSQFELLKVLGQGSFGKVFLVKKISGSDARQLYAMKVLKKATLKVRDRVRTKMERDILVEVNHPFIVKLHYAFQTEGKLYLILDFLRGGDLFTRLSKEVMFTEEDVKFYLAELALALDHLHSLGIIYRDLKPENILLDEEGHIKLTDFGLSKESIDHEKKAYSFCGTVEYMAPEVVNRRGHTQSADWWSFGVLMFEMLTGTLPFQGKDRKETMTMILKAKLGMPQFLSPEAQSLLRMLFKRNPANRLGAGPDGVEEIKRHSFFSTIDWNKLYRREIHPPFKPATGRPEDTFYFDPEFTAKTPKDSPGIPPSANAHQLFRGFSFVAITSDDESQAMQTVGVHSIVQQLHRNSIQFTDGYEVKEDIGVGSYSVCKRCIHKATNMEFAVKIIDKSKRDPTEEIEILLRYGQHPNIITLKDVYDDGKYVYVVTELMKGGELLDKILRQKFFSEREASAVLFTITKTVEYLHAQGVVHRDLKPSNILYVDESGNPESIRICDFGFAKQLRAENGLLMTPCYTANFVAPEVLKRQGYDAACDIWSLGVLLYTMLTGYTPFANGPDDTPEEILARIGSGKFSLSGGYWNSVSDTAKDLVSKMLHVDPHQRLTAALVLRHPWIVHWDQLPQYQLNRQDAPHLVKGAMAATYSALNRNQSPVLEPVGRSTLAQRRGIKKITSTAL
ΔTm [2],ΔTm [3],ΔTm [4],ΔTm [5],ΔTm [6],ΔTm [7],ΔTm [8],ΔTm [9],ΔTm [10],ΔTm [11],ΔTm [12],ΔTm [13],ΔTm [14],ΔTm [15],ΔTm [16],ΔTm [17],ΔTm [19],ΔTm [20],Structure (SMILES),ΔTm [1],ΔTm [18]
1.7 °C,1.2 °C,1.1 °C,0.3 °C,1.2 °C,0.4 °C,1.3 °C,0.2 °C,-0.8 °C,-0.3 °C,3.6 °C,0.5 °C,-0.1 °C,2.7 °C,0 °C,3.9 °C,1 °C,-0.4 °C,O=C1Nc2ccc(I)cc2/C1=C\c1cc(Br)c(O)c(Br)c1,2.6 °C,0.9 °C
-0.2 °C,0.9 °C,1.2 °C,0.4 °C,1.1 °C,0.5 °C,1 °C,1 °C,0.3 °C,0 °C,0.7 °C,0.2 °C,0.3 °C,0.8 °C,1.2 °C,1 °C,-0.3 °C,0.6 °C,N#C/C(=C\c1ccc(O)c(O)c1)C(=O)Nc1ccccc1,1.4 °C,0.5 °C
0.9 °C,0.7 °C,0.8 °C,1.4 °C,4.4 °C,1.2 °C,2.2 °C,1.4 °C,0.6 °C,3.1 °C,11.9 °C,1 °C,0.8 °C,2.4 °C,0.9 °C,6.1 °C,0.7 °C,1.2 °C,O=C1Cc2c([nH]c3ccc([N+](=O)[O-])cc23)-c2ccccc2N1,1.6 °C,0.1 °C
5.6 °C,7.8 °C,2.6 °C,5.9 °C,9.1 °C,0.4 °C,7.7 °C,2.4 °C,6.1 °C,2.9 °C,11 °C,4 °C,2.2 °C,7.5 °C,2.7 °C,5.9 °C,6.6 °C,3.1 °C,O=C1Nc2ccccc2/C1=C1/Nc2ccccc2/C1=N\O,2.7 °C,0 °C
